In publication PMC4437985, “Inhibition of a Putative Dihydropyrimidinase from Pseudomonas aeruginosa PAO1 by Flavonoids and Substrates of Cyclic Amidohydrolases” (PLoS ONE, 2015):
“Also recorded” adds a separate entry of the source. Where two headings read alike, the source gives them in different places.

Experiments:
[1] = target: T1, dihydropyrimidinase from P. aeruginosa PAO1 (Pseudomonas aeruginosa, UniProt Q9I676); type: biochemical
[2] = target: T1, dihydropyrimidinase from P. aeruginosa PAO1; experiment: Substrate specificity / Michaelis-Menten kinetics of dihydropyrimidinase; type: biochemical; settings: for Fold: V max/K m relative to dihydrouracil; for K m / V max / V max/K m: compound as substrate
Protocol: (§1) A rapid spectrophotometric assay was used to determine the enzymatic activity according to a previously described protocol for hydantoinase, allantoinase, dihydroorotase, and imidase. Dihydrouracil, 5-propyl-hydantoin, and phthalimide were used as substrates. Unless explicitly stated otherwise, dihydrouracil (2 mM) was used as the substrate in the standard assay of dihydropyrimidinase. Briefly, the decrease in absorbancy at 230, 248, and 298 nm was measured upon hydrolysis of dihydrouracil, 5-propyl-hydantoin, and phthalimide as the substrate at 25°C, respectively. To start the reaction, the purified dihydropyrimidinase (10–70 μg) was added to a 2 mL solution containing the substrate and 100 mM Tris–HCl (pH 8.0). Substrate hydrolysis was monitored with a UV/vis spectrophotometer (Hitachi U 3300, Hitachi High-Technologies, Tokyo, Japan). The extinction coefficient of each substrate was determined experimentally by direct measurement with a spectrophotometer. The extinction coefficients of dihydrouracil, 5-propyl-hydantoin, and phthalimide were 0.683 mM^-1cm^-1 at 230 nm, 0.0538 mM^-1cm^-1 at 248 nm, and 3.12 mM^-1cm^-1 at 298 nm, respectively. The initial rates of change were a function of enzyme concentration within the absorbance range of 0.01–0.18 min^-1. A unit of activity was defined as the amount of enzyme catalyzing the hydrolysis of 1 μmol substrate/min, and the specific activity was expressed in terms of units of activity per milligram of enzyme. The kinetic parameters K m and V max were determined from a non-linear plot by fitting the hydrolyzing rate from individual experiments to the Michaelis–Menten equation (Enzyme Kinetics module of Sigma-Plot; Systat Software, Chicago, IL, USA).

[3] = target: T1, dihydropyrimidinase from P. aeruginosa PAO1; experiment: Spectrophotometric enzyme assay: inhibition of dihydropyrimidinase; type: biochemical; settings: for Inhibitory effect on dihydropyrimidinase activity: 5-propyl-hydantoin or dihydrouracil as substrate
Protocol: as §1

[4] = target: P. aeruginosa dihydropyrimidinase (Pseudomonas aeruginosa, UniProt Q9I676); experiment: Fluorescence quenching of wild-type dihydropyrimidinase; type: binding; settings: for Quenching of intrinsic fluorescence / Red shift in emission wavelength: wild-type enzyme; for Quenching of intrinsic fluorescence: 50 μM compound; for Red shift in emission wavelength: λmax from 333.5 nm
Chain of P. aeruginosa dihydropyrimidinase (Q9I676 whole entry): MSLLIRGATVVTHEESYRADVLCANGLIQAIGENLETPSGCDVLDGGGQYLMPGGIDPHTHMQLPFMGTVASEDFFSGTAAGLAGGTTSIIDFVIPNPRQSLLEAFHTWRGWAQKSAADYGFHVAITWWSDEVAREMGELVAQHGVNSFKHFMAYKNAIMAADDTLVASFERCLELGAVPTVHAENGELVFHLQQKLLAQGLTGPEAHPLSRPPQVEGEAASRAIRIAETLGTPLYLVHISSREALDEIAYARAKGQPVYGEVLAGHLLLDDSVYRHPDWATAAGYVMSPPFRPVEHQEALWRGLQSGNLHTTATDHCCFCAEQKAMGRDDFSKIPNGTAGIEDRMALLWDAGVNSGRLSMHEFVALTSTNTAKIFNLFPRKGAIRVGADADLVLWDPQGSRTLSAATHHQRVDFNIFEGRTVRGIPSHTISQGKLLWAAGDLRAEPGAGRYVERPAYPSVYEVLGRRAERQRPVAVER
Protocol: (§2) The dissociation constants (K d) of dihydropyrimidinase was determined using the fluorescence quenching method as previously described for allantoinase, dihydroorotase, and DnaB helicase. An aliquot of each compound was added into the solution containing dihydropyrimidinase (0.8 μM), 50 mM HEPES at pH 7.0. The decrease in intrinsic fluorescence of protein was measured at 334.5 nm upon excitation at 279 nm and 25°C with a spectrofluorimeter (Hitachi F-2700; Hitachi High-Technologies, Tokyo, Japan). At least seven data points were used to calculate each K d. Each data point was an average of 2–3 determinants, and the difference of the determinants was within 10%. The K d was obtained by the equation: ΔF = ΔFmax-K d(ΔF/[compound]) (Enzyme Kinetics module of Sigma-Plot; Systat Software, Chicago, IL, USA).

[5] = target: N337A mutant of P. aeruginosa dihydropyrimidinase (Pseudomonas aeruginosa, UniProt Q9I676, N337A); experiment: Fluorescence quenching of the N337A mutant; type: binding, Pseudomonas aeruginosa PAO1; settings: for Red shift in λmax: N337A mutant, from 333.5 nm
Chain of N337A mutant of P. aeruginosa dihydropyrimidinase (Q9I676 whole entry N337A): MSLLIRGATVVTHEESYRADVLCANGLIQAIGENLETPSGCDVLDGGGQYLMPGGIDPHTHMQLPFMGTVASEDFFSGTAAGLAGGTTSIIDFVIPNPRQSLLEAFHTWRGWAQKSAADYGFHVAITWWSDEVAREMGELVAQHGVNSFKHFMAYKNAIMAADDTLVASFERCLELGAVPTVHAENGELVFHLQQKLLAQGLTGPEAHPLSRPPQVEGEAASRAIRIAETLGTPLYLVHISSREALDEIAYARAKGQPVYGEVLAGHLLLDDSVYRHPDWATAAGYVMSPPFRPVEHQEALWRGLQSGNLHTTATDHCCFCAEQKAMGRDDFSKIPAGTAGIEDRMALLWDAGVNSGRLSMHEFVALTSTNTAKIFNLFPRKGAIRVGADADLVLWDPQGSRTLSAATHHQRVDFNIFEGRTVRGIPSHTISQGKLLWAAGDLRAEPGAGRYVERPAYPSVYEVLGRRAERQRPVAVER
Protocol: The dihydropyrimidinase mutants (H59A, H61A, K150A, Y155A, H183A, H239A, S289A, D316A, and N337A) were generated according to the manufacturer’s protocol (Stratagene, LaJolla, CA). The presence of the mutation was verified by DNA sequencing in each construct.
as §2

[6] = metal ion 1 mM added to reaction mixture, enzyme purified without metal supplement, dihydrouracil substrate
[7] = specific activity relative to no metal added, metal ion 1 mM
[8] = substrate and inhibitor analogs of other cyclic amidohydrolases, read-out: IC50
[9] = IC50, 5-propyl-hydantoin as substrate
[10] = IC50, dihydrouracil as substrate
[11] = 40 μM dihydromyricetin, dihydrouracil substrate

T1 sequence (Q9I676 whole entry): as the sequence (Q9I676 whole entry) above

[Cl][Mn][Cl] [MnCl2]
Effect of metal addition on dihydropyrimidinase activity ([1]; 1 mM added to reaction mixture): activated
Specific activity [1, 6]: 1.72 ± 0.09 µmol/mg/min
Fold [1, 7]: 2.1

CCCC1NC(=O)NC1=O (centres unmarked) [5-propyl-hydantoin]
Catalytic efficiency toward dihydrouracil higher than toward this substrate [2]: 100 fold
Fold [2]: 0.01
K m [2]: 8100 ± 1500 µM
V max [2]: 1.2 ± 0.1 µmol/mg/min
V max/K m [2]: 0.15

O=c1c(O)c(-c2ccc(O)c(O)c2)oc2cc(O)cc(O)c12 [quercetin]
Inhibitory effect on dihydropyrimidinase activity [3]: insignificant

myricitrin
Inhibitory effect on dihydropyrimidinase activity [3]: No effect

[Cl-].[Cl-].[Zn+2] [ZnCl2]
Effect of metal addition on dihydropyrimidinase activity ([1]; 1 mM added to reaction mixture): activated
Specific activity [1, 6]: 2.90 ± 0.10 µmol/mg/min
Fold [1, 7]: 3.5

O=C(O)CC1NC(=O)NC1=O (centres unmarked) [5-hydantoin acetic acid]
IC50 range [3]: within the millimolar range
Inhibitory effect on dihydropyrimidinase activity [3]: only slightly inhibit
IC50 [3, 8]: ~50000 µM

Nc1nc[nH]n1 [3-amino-1,2,4-triazole]
Concentration that affected enzyme activity [3]: 100 to 750 mM
IC50 range [3]: within the millimolar range
Inhibitory effect on dihydropyrimidinase activity [3]: slightly inhibit

[Cl-].[Cl-].[Mg+2] [MgCl2]
Effect of metal addition on dihydropyrimidinase activity ([1]; 1 mM added to reaction mixture): not useful
Specific activity [1, 6]: 0.82 ± 0.05 µmol/mg/min
Fold [1, 7]: 1.0

[Cl][Ni][Cl] [NiCl2]
Effect of metal addition on dihydropyrimidinase activity ([1]; 1 mM added to reaction mixture): not useful
Specific activity [1, 6]: 0.91 ± 0.06 µmol/mg/min
Fold [1, 7]: 1.1

O=C1NC(=O)c2ccccc21 [phthalimide]
Catalytic efficiency toward dihydrouracil higher than toward this substrate [2]: fourfold
Fold [2]: 0.25
K m [2]: 1000 ± 300 µM
V max [2]: 2.7 ± 0.6 µmol/mg/min
V max/K m [2]: 2.7

O=c1c(O)c(-c2ccc(O)cc2)oc2cc(O)cc(O)c12 [kaempferol]
Inhibitory effect ([3]; 5-propyl-hydantoin as substrate): only slightly inhibited
Inhibitory effect ([3]; dihydrouracil as substrate): significant
IC50 ([3]; dihydrouracil as substrate, read-out: IC50): 50 ± 2 µM

[Cl][Cd][Cl] [CdCl2]
Effect of metal addition on dihydropyrimidinase activity ([1]; 1 mM added to reaction mixture): not useful
Specific activity [1, 6]: 0.74 ± 0.04 µmol/mg/min
Fold [1, 7]: 0.9

O=C1CCNC(=O)N1 [dihydrouracil]
Fold [2]: 1.0
K m [2]: 700 ± 100 µM
V max [2]: 7.6 ± 0.4 µmol/mg/min
V max/K m [2]: 10.9

O=c1c(O)c(-c2cc(O)c(O)c(O)c2)oc2cc(O)cc(O)c12 [myricetin]
Kd [4]: 28.8 ± 2.2 µM
Quenching of intrinsic fluorescence [4]: 56.2%
Red shift in emission wavelength [4]: ~ 7 nm
Inhibitory effect on dihydropyrimidinase activity [3]: strongly inhibit
IC50 [3, 9]: 63 ± 3 µM
IC50 [3, 10]: 83 ± 3 µM
Inhibitory effect ([3]; dihydrouracil as substrate): significant
Red shift in λmax [5]: ~ 7.5 nm

NC(=O)NC1NC(=O)NC1=O (centres unmarked) [allantoin]
IC50 range [3]: within the millimolar range
Inhibitory effect on dihydropyrimidinase activity [3]: slightly inhibit; also recorded: only slightly inhibited
K m [2]: Not hydrolyzed
V max [2]: Not hydrolyzed

O=C1CC(C(=O)O)NC(=O)N1 (centres unmarked) [dihydroorotate]
IC50 range [3]: within the millimolar range
Inhibitory effect on dihydropyrimidinase activity [3]: slightly inhibit; also recorded: only slightly inhibited
IC50 [3, 8]: ~30000 µM
K m [2]: Not hydrolyzed
V max [2]: Not hydrolyzed

[Ca+2].[Cl-].[Cl-] [CaCl2]
Effect of metal addition on dihydropyrimidinase activity ([1]; 1 mM added to reaction mixture): not useful
Specific activity [1, 6]: 0.82 ± 0.05 µmol/mg/min
Fold [1, 7]: 1.0

[Cl-].[Cl-].[Co+2] [CoCl2]
Effect of metal addition on dihydropyrimidinase activity [1]: activated
Fold [1]: 7.1
Specific activity [1]: 5.80 ± 0.16 µmol/mg/min
Specific activity toward dihydrouracil [1]: 5.9 ± 0.4 µmol/mg/min

O=C(O)c1cc(=O)[nH]c(=O)[nH]1 [orotic acid]
IC50 range [3]: within the millimolar range
Inhibitory effect on dihydropyrimidinase activity [3]: slightly inhibit

CC(=O)NO [acetohydroxamate]
IC50 range [3]: within the millimolar range
Inhibitory effect on dihydropyrimidinase activity [3]: only slightly inhibit

O=C1c2c(O)cc(O)cc2O[C@H](c2cc(O)c(O)c(O)c2)[C@H]1O [dihydromyricetin]
Kd [4]: 22.6 µM
Quenching of intrinsic fluorescence [4]: 89.1%
Red shift in emission wavelength [4]: ~ 25 nm
Inhibition stronger than the substrate analogs [3]: > 3 orders of magnitude
K m in the presence of inhibitor [3, 11]: 1600 ± 200 µM
V max in the presence of inhibitor [3, 11]: 5.4 ± 0.4 µmol/mg/min
Type of inhibition (Lineweaver-Burk plot) ([3]; 40 μM inhibitor, different concentrations of dihydrouracil): competitive inhibitor
Inhibitory effect on dihydropyrimidinase activity [3]: significant inhibitory effect
IC50 [3, 9]: 40 µM
IC50 [3, 10]: 48 µM
Kd [5]: 24.1 ± 1.7 µM
Red shift in λmax [5]: ~ 23.5 nm
